From paper PMC6017328, “Tetrasubstituted Imidazolium Salts as Potent Antiparasitic Agents against African and American Trypanosomiases” (Molecules : A Journal of Synthetic Chemistry and Natural …, 2018)
Like-named read-outs stand apart in the source and are kept apart here.

How the values were obtained:
[1] = tested on: T. cruzi epimastigotes (CL Brener stain); test: T. cruzi culturing and evaluation of trypanocidal activity (resazurin); format: cell-based; settings: Trypanosoma cruzi; for EC90: epimastigotes, CL Brener, growth reduced by 90%
Protocol: Activity was determined using 96-well plate assays. Cultures were diluted to 2.5 × 10^5 mL^−1, aliquoted in triplicate at a range of compound concentrations, and incubated for 4 days. Resazurin was added and the plates incubated for a further 3 days, then read in a Spectramax plate reader as outlined above.

[2] = tested on: Bloodstream form T. brucei (strain 221); test: T. brucei culturing and evaluation of trypanocidal activity (resazurin); format: cell-based; settings: Trypanosoma brucei; for EC50: concentration reducing parasite growth by 50%, triplicate; for EC90: concentration reducing parasite growth by 90%
Protocol: Bloodstream form T. brucei (strain 221) were grown as described previously. […] Logarithmically growing T. brucei were diluted to 2.5 × 10^4 mL^−1 and aliquoted into 96-well plates. Then, compounds were added at a range of concentrations and the plates incubated at 37 °C. Each compound was tested in triplicate. Resazurin was added after 48 h and the plates incubated for a further 16 h. The plates were then read in a Spectramax plate reader. Results were analyzed using GraphPad Prism.

[3] = PAMPA-BBB assay (brain permeability); format: in vitro ADME, porcine; settings: for Papp: pig, PAMPA, PBS:EtOH 70:30, n=3 ± S.D. in Table S5, read-out: PAMPA-BBB permeability (Pe), experimental value; for CNS Prediction: predictive penetration in the CNS from PAMPA-BBB Pe
Protocol: The in vitro permeability (Pe) of the tested compounds and fourteen reference drugs through a lipid extract of porcine brain membrane was assessed by using a parallel artificial membrane permeation assay. Commercial drugs and the target compounds were tested using a mixture of phosphate-buffered saline (PBS): EtOH 70:30. The assay was validated by comparing the experimental permeability with the reported values of the reference drugs.

[4] = tested on: L6 rat myoblast cells; test: Cytotoxic activity against rat skeletal myoblast L6 cells; format: cell-based; settings: 144 h; cytotoxicity, L6 rat myoblasts, 6 days
Protocol: Cytotoxicity was assessed using microtiter plates following a previously described protocol. Briefly, L6 cells were seeded at 1 × 10^4 mL^−1 in 200 μL of growth medium at different compound concentrations. The plates were incubated for 6 days at 37 °C and then 20 μL resazurin was added to each well. After a further 8 h incubation, fluorescence was determined using a Spectramax plate reader.

[5] = tested on: T. cruzi epimastigotes (CL Brener stain); settings: read-out: EC50 (T. cruzi); comparison drug; cited from earlier work
[6] = tested on: Bloodstream form T. brucei (strain 221); settings: read-out: EC50 (T. brucei); comparison drug; cited from earlier work
[7] = cited from earlier work

Row | Compound | EC50 [1] | EC90 [1] | EC50 [2] | EC90 [2] | BBB permeation (in words) ([3]; according to the limits of Di et al., low Pe < 1.89, uncertain 5.16 > Pe 10^−6 cm s^−1 > 1.89) | Papp [3] | CNS Prediction [3] | EC50 [4] | EC50 [5] | EC50 [6] | PAMPA-BBB permeability (Pe), bibliography value [7]
1 | Cc1ccc(-n2c[n+](CC(=O)[O-])c(Cc3ccccc3)c2-c2ccccc2)cc1 [Compound 1e] | > 20000 nM | > 20000 nM | 5260 ± 10 nM | 6790 ± 90 nM | low BBB permeation | 1.6 ×10⁻⁶ cm/s | CNS- | > 130000 nM |  |  | 
2 | CC1CS(=O)(=O)CCN1/N=C/c1ccc([N+](=O)[O-])o1 (stereo not shown) [nifurtimox] |  |  |  |  |  |  |  |  | ~2000 nM | ~2000 nM | 
3 | COc1ccc(-n2c[n+](C(C)(C)C)c(Cc3ccc(C)cc3)c2-c2ccc(Cl)cc2)cc1 [Compound 1c] | 1720 ± 390 nM | 2980 ± 190 nM | 180 ± 10 nM | 200 ± 10 nM |  | 2.6 ×10⁻⁶ cm/s | CNS+/- | 9690 ± 580 nM |  |  | 
4 | Cc1ccc(-n2c[n+](C(C)(C)C)c(Cc3ccccc3)c2-c2ccccc2)cc1 [Compound 1a] | 1850 ± 290 nM | 3410 ± 140 nM | 180 ± 10 nM | 280 ± 70 nM |  | 4.2 ×10⁻⁶ cm/s | CNS+/- | 33900 ± 3300 nM |  |  | 
5 | COc1ccc(-n2c[n+](-c3ccc(OC)cc3)c(Cc3ccccc3)c2-c2ccc(C)cc2)cc1 [Compound 1b] | 440 ± 10 nM | 1290 ± 50 nM | 40 nM | 50 nM |  | 4.9 ×10⁻⁶ cm/s | CNS+/- | 4600 ± 380 nM |  |  | 
6 | CN/C(=N/CCSCc1nc[nH]c1C)NC#N [Cimetidine] |  |  |  |  |  |  |  |  |  |  | 0.0 10-6 cm s-1
7 | Cc1ccc(-n2c[n+](-c3ccc4ccccc4c3)c(Cc3ccccc3)c2-c2ccc(Cl)cc2)cc1 [Compound 1d] | 540 ± 80 nM | 1000 ± 40 nM | 70 nM | 90 nM |  | 2.4 ×10⁻⁶ cm/s | CNS+/- | 4090 ± 280 nM |  |  | 
8 | CN1C(C(=O)Nc2ccccn2)=C(O)c2ccccc2S1(=O)=O [Piroxicam, reference compound] |  |  |  |  |  | 1.7 ± 0.03 ×10⁻⁶ cm/s |  |  |  |  | 
